Six compounds from patent US8859727B2, “Bioactive FUS1 peptides and nanoparticle-polypeptide complexes” (Board of Regents, The University of Texas System, priority 2005, dated 2014) can be followed below.

“Also recorded” adds a separate entry of the source. Counter-ions that a name gives are not always drawn. Like-named read-outs stand apart in the source and are kept apart here. Where a SMILES comes first, the peptide text is derived from it. Where no end group is shown, it is not given here. The star is where a group is joined. Stearoyl = CCCCCCCCCCCCCCCCCC(=O)*

Data set [1] relates to Rat-1 cells transformed with an activated c-Abl tyrosine kinase. The experiment in a line: Foci formation in Rat-1 cells transformed by c-Abl. It is filed as cell-based.
Description: Rat-1 SH2 cells express GFP as a marker. A fluorescent photo was taken of green fluorescing Rat-1 SH2 cells treated with peptide. A phase contrast photo of the field was produced. […] (Rat-1 SH2+M74) and (Rat-1 SH2+ stearic acid) were imaged.
For the next data set, the target named is T1, c-Abl tyrosine kinase (Abelson murine leukemia virus, UniProt P00521).
T1 construct: truncated commercial (New England Bio-Labs) cAbl tyrosine kinase (45 kD) containing only the SH2 and SH1 domains; purchased New England Bio-Labs; host or cells: bacteria
It is filed as biochemical. Conditions: for inhibition of Abl tyrosine kinase: commercial / bacterially purified Abl kinase, GST-Crk substrate. How it is done:
A zero peptide control, a DMSO control, a DMSO plus stearic acid control, and 20, 25, 30, 35, 40, 45, 50 and 55:M of peptide were evaluated.
After 30 minutes of incubation at 30 degrees, samples were boiled with 2×SDS sample buffer and run on an 8% SDS PAGE gel. The gel was dried and exposed to a phosphoimager.
GST-Crk phosphorylation was quantified by using a phosphoimager.

Data set [2] in a line: Toxicity Study of FP-nanoparticle in C3H mice (hematological parameters, hepatic and renal function). The conditions noted are these: tail vein three times every other day. The data set is classed as in vivo. How it is done:
C3H mice were injected with a nanoparticle containing a peptide (either the FUS-1 peptide or a nonspecific peptide), and various toxicological parameters were subsequently analyzed at 1, 2 and 3 weeks after injection. Control mice (“Group IX”) were injected with PBS. The toxicological parameters evaluated included hematological parameters (i.e., red blood cell counts “RBC” and white blood cell counts “WBC”), analysis of hepatic function (i.e., AST, ALT, and total bilirubin analysis) and analysis of renal function (i.e., evaluation of creatinine levels). Either DOTAP:cholesterol nanoparticles or DOPC (neutral liposome) nanoparticles were used. The amount of peptide-containing nanoparticle administered to the C3H mice varied from 2 mg/kg to 5 mg/kg. These studies are summarized below in Table V.

The next data set relates to H1299 cells. Put plainly: Soft agar colony assay. The data set is classed as cell-based, human.
For data set [3], the system named is normal bronchial epithelial CCD16 cells. The experiment in a line: Cell growth / cytotoxicity in normal cells, XTT assay. The data set is classed as cell-based, human. Conditions: at the IC80 doses to all other NSCLC cells. Background: Tetrazolium dyes change colour on reduction, which living cells bring about.
Where [4] appears, read: Rat-1 cells transformed with activated c-Abl.
The mark [5] stands for this setting: 2 mg/kg, 1st week after last treatment.
Where [6] appears, read: 2 mg/kg, 2nd week after last treatment.
Where [7] appears, read: 2 mg/kg, 3rd week after last treatment.
[8] abbreviates: 5 mg/kg, 1st week after last treatment.
[9] abbreviates: 5 mg/kg, 2nd week after last treatment.
The mark [10] stands for this setting: 5 mg/kg, 3rd week after last treatment.

T1 sequence (P00521 1-398): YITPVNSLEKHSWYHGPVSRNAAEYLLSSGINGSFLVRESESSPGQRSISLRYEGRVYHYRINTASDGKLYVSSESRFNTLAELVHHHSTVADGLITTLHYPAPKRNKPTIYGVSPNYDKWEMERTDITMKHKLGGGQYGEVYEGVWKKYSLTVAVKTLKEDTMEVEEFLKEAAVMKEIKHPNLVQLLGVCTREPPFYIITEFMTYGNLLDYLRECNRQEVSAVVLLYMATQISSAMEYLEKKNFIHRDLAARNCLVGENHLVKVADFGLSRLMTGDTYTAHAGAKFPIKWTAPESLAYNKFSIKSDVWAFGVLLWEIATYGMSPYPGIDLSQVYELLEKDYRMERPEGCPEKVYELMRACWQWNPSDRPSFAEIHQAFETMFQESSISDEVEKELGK

As to `CCCCCCCCCCCCCCCCCC(=O)O` [stearic acid], the foci formation entry in data set [1] (30:M, Rat-1 SH2 cells) is listed as “no effect”; in data set [1] (setting [4]), “no effects”. For the same compound, the “inhibition of Abl tyrosine kinase” value against c-Abl tyrosine kinase was “no inhibitory effects; also recorded: not inhibitory”; on c-Abl tyrosine kinase (listed as Stearate), “not inhibitory”.

“Non-stearate FUS1 peptide: Fus1 peptide sequence without the stearic acid moiety (KLRRVHKNLIPQGIVKLDHR)”: the “inhibition of Abl tyrosine kinase activity” value with c-Abl tyrosine kinase (0-60 uM, 45 kD Abl tyrosine kinase, GST-Crk phosphorylation) is recorded as “did not inhibit”. The “inhibition of Abl tyrosine kinase” value with c-Abl tyrosine kinase was “did not inhibit”; with c-Abl tyrosine kinase (listed as Fus1 peptide lacking the stearate N-terminal moiety), “inactive”.

In the case of `CCCCCCCCCCCCCCCCCC(=O)N[C@@H](CC(=O)O)C(=O)N[C@@H](CC(C)C)C(=O)N[C@H](C(=O)N[C@@H](CCC(=O)O)C(=O)N[C@@H](CCC(=O)O)C(=O)N[C@@H](C)C(=O)N[C@@H](C)C(=O)N[C@@H](CO)C(=O)N[C@@H](CCCNC(=N)N)C(=O)N1CCC[C@H]1C(=O)N[C@H](C(=O)N[C@@H](CC(=O)O)C(=O)N[C@@H](C)C(=O)N[C@H](C(=O)N1CCC[C@H]1C(=O)N[C@@H](CCC(=O)O)C(=O)N[C@@H](CCC(N)=O)C(=O)N[C@H](C(=O)N[C@@H](CCCCN)C(=O)N[C@@H](C)C(=O)N[C@@H](C)C(=O)NCC(=O)N[C@@H](C)C(=O)N[C@@H](Cc1ccc(O)cc1)C(=O)O)C(C)C)C(C)C)C(C)C)[C@@H](C)CC` [NSP] (Stearoyl-DLIEEAASRPVDAVPEQVKAAGAY-OH), the ALT is on record as 76 ± 7.87 U/L in data set [2] (setting [5]); 61.67 ± 5.44 U/L in data set [2] (setting [6]); 58.67 ± 12.55 U/L in data set [2] (setting [7]); 91.5 ± 7.5 U/L in data set [2] (setting [8]); 54 ± 9.93 U/L in data set [2] (setting [9]); 50 ± 6.16 U/L in data set [2] (setting [10]). The AST in data set [2] (setting [5]) is on record as 183 ± 6 U/L; in data set [2] (setting [6]) it was 146 ± 45.31 U/L; in data set [2] (setting [7]) it was 94.67 ± 28.59 U/L; in data set [2] (setting [8]) it was 148.5 ± 13.5 U/L; in data set [2] (setting [9]), 96.33 ± 20.24 U/L; in data set [2] (setting [10]), 83.67 ± 23.63 U/L. The Creatinine was 0.6 ± 0 mg/dL in data set [2] (setting [5]); 0.5 ± 0.10 mg/dL in data set [2] (setting [6]); 0.38 ± 0.09 mg/dL in data set [2] (setting [7]); 0.317 ± 0.02 mg/dL in data set [2] (setting [8]); 0.35 ± 0.02 mg/dL in data set [2] (setting [9]); 0.32 ± 0.04 mg/dL in data set [2] (setting [10]). Moreover, the “Total Bilirubin” value turned out to be 2.7 ± 0 mg/dL in data set [2] (setting [5]); 1.13 ± 1.09 mg/dL in data set [2] (setting [6]); 0.6 ± 0.42 mg/dL in data set [2] (setting [7]); 1.8 ± 1.2 mg/dL in data set [2] (setting [8]); 0.7 ± 0.28 mg/dL in data set [2] (setting [9]); 0.43 ± 0.12 mg/dL in data set [2] (setting [10]). The RBC is on record as 6.23 ± 0.33 ×10^9 in data set [2] (setting [6]), 5.7 ± 1.14 ×10^9 in data set [2] (setting [7]), 7.47 ± 2.28 ×10^9 in data set [2] (setting [9]) and 6.67 ± 0.69 ×10^9 in data set [2] (setting [10]). Further, the WBC in data set [2] (setting [6]) was 1.93 ± 0.58 ×10^9; in data set [2] (setting [7]) it was 1.93 ± 0.45 ×10^9; in data set [2] (setting [9]), 1.6 ± 0.24 ×10^9; in data set [2] (setting [10]), 1.6 ± 0.14 ×10^9.

Regarding “Stearic acid-KLRRVHKNLIPQGIVKLDHR (Stearoyl-KLRRVHKNLIPQGIVKLDHR) [stearate-Fus1 peptide]”, the foci formation result in data set [1] (40 μM) and in data set [1] (setting [4]) was “blocked foci formation” in each case. Besides, the “inhibition of Abl tyrosine kinase” value in the data set with c-Abl tyrosine kinase is given as “strongly inhibitory”.

`Cc1ccc(NC(=O)c2ccc(CN3CCN(C)CC3)cc2)cc1Nc1nccc(-c2cccnc2)n1` [imatinib, imatinib mesylate]: the colony-forming ability entry in the data set with H1299 cells (1-10 uM, dose-dependent, number and size of colonies) was “strongly inhibited”. Further, in the data set with H1299 cells (10:M, compared to untreated cells), the size of colonies entry is “reduced in size”. The number of colonies result in the data set on H1299 cells (10:M, compared to untreated control) is given as “almost complete reduction in the number of colonies”.

Consider `CCCCCCCCCCCCCCCCCC(=O)N[C@@H](CCCCN)C(=O)N[C@@H](CC(C)C)C(=O)N[C@@H](CCCNC(=N)N)C(=O)N[C@@H](CCCNC(=N)N)C(=O)N[C@H](C(=O)N[C@@H](Cc1c[nH]cn1)C(=O)N[C@@H](CCCCN)C(=O)N[C@@H](CC(N)=O)C(=O)N[C@@H](CC(C)C)C(=O)N[C@H](C(=O)N1CCC[C@H]1C(=O)N[C@@H](CCC(N)=O)C(=O)NCC(=O)N[C@H](C(=O)N[C@H](C(=O)N[C@@H](CCCCN)C(=O)N[C@@H](CC(C)C)C(=O)N[C@@H](CC(=O)O)C(=O)N[C@@H](Cc1c[nH]cn1)C(=O)N1CCC[C@H]1C(=O)N[C@@H](CCCNC(=N)N)C(=O)O)C(C)C)[C@@H](C)CC)[C@@H](C)CC)C(C)C` [st-wt-FP] (Stearoyl-KLRRVHKNLIPQGIVKLDHPR-OH), for which the “cytotoxicity in normal cells” value in data set [3] is “No significant cytotoxicity”.
